The source of these data is patent US12605344B2, “Nanoparticles encapsulating soluble biologics, therapeutics, and imaging agents” (The Trustees of Princeton University, priority 2014, dated 2026).

Series [1] is described as follows: Maximum loading giving stable nanoparticles (FNP). The series is classed as physicochemical. The following applies: PBA-b-PAA nanoparticles by FNP. From the text:
Increasing the percentage of core material necessitated the formation of larger particles. […] This may be because the addition of core material allows the PAA to more tightly pack due to charge shielding effects. Very high loadings of both lysozyme and vancomycin were obtained. Loading of lysozyme as high as 75 wt % was obtained without the formation of large precipitates, however, the particles were too large to analyze using dynamic light scattering (DLS).

Series [2] can be described thus: Solubility in organic solvents. The format is physicochemical. The following applies: in chloroform and acetone.

As for `CN[C@H](CC(C)C)C(=O)N[C@H]1C(=O)N[C@@H](CC(N)=O)C(=O)N[C@H]2C(=O)N[C@H]3C(=O)N[C@H](C(=O)N[C@H](C(=O)O)c4cc(O)cc(O)c4-c4cc3ccc4O)[C@H](O)c3ccc(c(Cl)c3)Oc3cc2cc(c3O[C@@H]2O[C@H](CO)[C@@H](O)[C@H](O)[C@H]2O[C@H]2C[C@](C)(N)[C@H](O)[C@H](C)O2)Oc2ccc(cc2Cl)[C@H]1O` [Vancomycin, vancomycin], the “loading obtained with stable particles / without large precipitates” value in series [1] is on record as “up to 90 wt %”. In series [2], the solubility result is reported as “poorly soluble”.
With lysozyme, the “loading obtained with stable particles / without large precipitates” value in series [1] is not above 75 wt %.
